Measurements taken from publication PMC6727465, “Discovery of 2-phenoxyacetamides as inhibitors of the Wnt-depalmitoleating enzyme NOTUM from an X-ray fragment screen” (MedChemComm, 2019).
Values after ≈ are worked out from the molar mass of the structure shown. Where two headings read alike, the source gives them in different places.

What was measured:
[1] = test system: Wnt/β-catenin signaling pathway TCF/LEF reporter (luciferase) HEK293 cell line with exogenous Wnt3a and NOTUM; assay: cells; format: cell-based; details: for EC50: Wnt3a 100 ng mL^–1, NOTUM 500 ng mL^–1, n = 4, read-out: TCF/LEF reporter EC50, activation of Wnt signaling via inhibition of NOTUM
[2] = test system: MDCK-mdr1 cell line; assay: MDCK-mdr1 cell permeability; format: in vitro ADME; details: MDCK-mdr1
Source text: (§1) Selected compounds were screened for aqueous solubility, transit performance in MDCK-mdr1 cell
(§2) lines for permeability, and metabolic stability in human and mouse liver microsomes as a measure of
(§3) ADME studies reported in this work were independently performed by GVK Biosciences (Hyderabad,
(§4) India) and/or Cyprotex (Macclesfield, UK).
(§5) Cyptotex, UK. See: https://www.cyprotex.com/admepk
(§6) GVK Biosciences, India. See: https://www.gvkbio.com/discovery-services/biology-services/dmpk-
(§7) The MDCK-mdr1 cell line used in these experiments was supplied to GVK Biosciences from SOLVO

[3] = MDCK-mdr1 cell permeability; format: in vitro ADME; details: dog
Source text: as §1, §2, §3, §4, §5, §6, §7

[4] = Metabolic stability in human liver microsomes; format: in vitro ADME; details: NADPH independent metabolism
Source text: as §1, §2, §3, §4, §5, §6, §7

[5] = Hydrolytic stability in buffer systems; format: physicochemical; details: three buffer systems (pH 4, 7.4, 10), time points up to 18 h, UPLC-MS
[6] = Metabolic stability in mouse liver microsomes; format: in vitro ADME; details: NADPH independent metabolism; for half-life: mouse
Source text: as §1, §2, §3, §4, §5, §6, §7

[7] = Aqueous thermodynamic solubility; format: physicochemical; details: aqueous medium (not further specified), thermodynamic from solid
Source text: as §1, §2, §3, §4, §5, §6, §7

Cc1ccccc1OCC(=O)Nc1ccc2cn(C)nc2c1 [Compound 35]
Response in TCF/LEF reporter assay ([1]; dual activity: NOTUM inhibition and stabilizers of luciferase enzyme): supramaximal response

Cc1ccccc1OCC(=O)Nc1ccc2cnn(C)c2c1 [Compound 34]
P-gp mediated efflux [2]: no evidence of P-gp mediated efflux
Papp A→B ([3]; MDCK-mdr1, AB): 5.1 ×10⁻⁶ cm/s
Papp B→A ([3]; MDCK-mdr1, BA): 6.6 ×10⁻⁶ cm/s
half-life [4]: 11.6 min
Hydrolytic stability [5]: only parent was detected
MLM (t1/2 min) [6]: Not detected ^a
solubility thermodynamic [7]: 2 µg/mL (≈ 6.77 µM)

Cc1ccccc1OCC(=O)Nc1ccc2nn[nH]c2c1 [Compound 39]
half-life ([6]; liver microsomes): 1.8 min

O=C(COc1ccccc1Cl)Nc1ccc2cnccc2c1 [Compound 50]
half-life ([6]; liver microsomes): 3.3 min

Cc1ccccc1OCC(=O)N1CCc2ccccc2C1 [Compound 54]
MLM (t1/2 min) [6]: Not detected ^a

Cc1ccccc1N(C)CC(=O)Nc1ccc2cnn(C)c2c1 [Compound 53]
half-life ([6]; mouse liver microsomes): 5.2 min

Cc1ccccc1OCC(=O)Nc1cnccn1 [Compound 22]
MLM (t1/2 min) [6]: Not detected ^a

Cc1ccccc1OCC(=O)Nc1ccc2cn(C(C)C)nc2c1 [Compound 38]
EC50 ([1]; Homo sapiens, HEK293): ~934 nM
inhibition at 3 µM ([1]; Homo sapiens, HEK293, at 3 μM): 60%
half-life [4]: 5.1 min
half-life ([6]; liver microsomes): 5.7 min

Cc1ccccc1OCC(=O)Nc1ccc2nccnc2c1 [Compound 27]
Response in TCF/LEF reporter assay [1]: supramaximal response

Cc1ccccc1OCC(=O)Nc1ccc2cnccc2c1 [Compound 45]
half-life [4]: 12.1 min
half-life ([6]; liver microsomes): 11 min

Cc1ccccc1OCC(=O)Nc1cccnc1 [Compound 3, 2-(2-methylphenoxy)-N-(pyridine-3-yl)acetamide]
half-life ([6]; liver microsomes): 1.1 min

CCn1cc2ccc(NC(=O)COc3ccccc3C)cc2n1 [Compound 37]
EC50 ([1]; Homo sapiens, HEK293): 386 ± 199 nM
